From patent US9284323B2, “Naphthalene acetic acid derivatives against HIV infection” (Gilead Sciences, Inc., priority 2012, dated 2016)

Test system: HIV-IIIb
Assay: Test A: Antiviral Assays in MT4 Cells
Format: cell-based
Conditions: MT-4 cells infected with HIV-IIIb, 5 days incubation, CellTiter-Glo readout
Procedure: The antiviral properties of a compound disclosed herein may be determined using Test A described below.
Test A: Antiviral Assays in MT4 Cells
For the antiviral assay utilizing MT-4 cells, 0.4 μL of […] test concentration of 3-fold serially diluted compound in DMSO was added to 40 μL of cell growth medium (RPMI 1640, 10% FBS, 1% penicillin/Streptomycin, 1% L-Glutamine, 1% HEPES) in each well of 384-well assay plates (10 concentrations) in quadruplicate.
1 mL aliquots of 2×10e6 MT-4 cells are pre-infected for 1 and 3 hrs respectively, @ 37° C. with 25 μL (MT4) or of either cell growth medium (mock-infected) or a fresh 1:250 dilution of an HIV-IIIb concentrated ABI stock (0.004 m.o.i. for MT4 cells). Infected and uninfected cells are diluted in cell growth medium and 35 μL of 2000 (for MT4) cells is added to each well of the assay plates.
Assay plates were then incubated in a 37° C. incubator. After 5 days of incubation, 25 μl of 2× concentrated CellTiter-Glo™ Reagent (catalog # G7573, Promega Biosciences, Inc., Madison, Wis.) was added to each well of the assay plate. Cell lysis was carried out by incubating at room temperature for 2-3 min and then chemiluminescence was read using the Envision reader (PerkinElmer).

[1] = Human immunodeficiency virus 1, IIIB, MT4, 120 h, Table II
[2] = Human immunodeficiency virus 1, IIIB, MT4, 120 h, Table I

| SMILES | EC50 (Table II) | EC50 [1] | other results |
| --- | --- | --- | --- |
| Cc1cc2cc(-c3c(C)ncnc3C)ccc2c(-c2ccc3c4c(ccnc24)CCO3)c1[C@H](OC(C)(C)C)C(=O)O (atropisomer, axis not shown) [Example 58] | 7760 nM | – | – |
| Cc1cc2cc(-c3c(C)ncnc3C)ccc2c(-c2ccc3c4c(ccnc24)CCO3)c1[C@H](OC(C)(C)C)C(=O)O (atropisomer, axis not shown) [Example 59] | 471 nM | – | – |
| COc1ncc(-c2ccc3c(-c4ccc5c6c(ccnc46)CCO5)c([C@H](OC(C)(C)C)C(=O)O)c(C)cc3c2)cn1 (atropisomer, axis not shown) [Example 60] | – | 12.2 nM | – |
| Cc1cc2cc(-c3cncnc3C(C)C)ccc2c(-c2ccc3c4c(ccnc24)CCO3)c1[C@H](OC(C)(C)C)C(=O)O (atropisomer, axis not shown) [Example 62] | – | 41.1 nM | – |
| Cc1ccc2c(-c3ccc4c5c(ccnc35)CCO4)c([C@@H](OC(C)(C)CF)C(=O)O)c(C)cc2c1 (atropisomer, axis not shown) [Example 63] | – | 1680 nM | – |
| Cc1ccc2c(-c3ccc4c5c(ccnc35)CCO4)c([C@H](OC(C)(C)CF)C(=O)O)c(C)cc2c1 (atropisomer, axis not shown) [Example 64] | – | 8.72 nM | – |
| Cc1cc2cc(-c3cncnc3)ccc2c(-c2ccc3c4c(ccnc24)CCO3)c1[C@H](OC(C)(C)C)C(=O)O (atropisomer, axis not shown) [Example 66] | – | 9.88 nM | – |
| Cc1cc2c(C)c(-c3cnc(N4CCN(C)CC4)nc3)ccc2c(-c2ccc3c4c(ccnc24)CCO3)c1[C@H](OC(C)(C)C)C(=O)O (atropisomer, axis not shown) [Example 71] | – | 4.23 nM | – |
| Cc1cc2c(C)c(-c3cnc(N(C)C)nc3)ccc2c(-c2ccc3c4c(ccnc24)CCO3)c1[C@H](OC(C)(C)C)C(=O)O (atropisomer, axis not shown) [Example 72] | 7020 nM | – | – |
| Cc1cc2c(C)c(-c3cnc(N(C)C)nc3)ccc2c(-c2ccc3c4c(ccnc24)CCO3)c1[C@H](OC(C)(C)C)C(=O)O (atropisomer, axis not shown) [Example 73] | 8.95 nM | – | – |
| Cc1cc2c(C)c(-c3cnc(N)nc3)ccc2c(-c2ccc3c4c(ccnc24)CCO3)c1[C@H](OC(C)(C)C)C(=O)O (atropisomer, axis not shown) [Example 75] | 6.95 nM | – | – |
| Cc1cc2c(C)c(-c3cncnc3)ccc2c(-c2ccc3c4c(ccnc24)CCO3)c1[C@H](OC(C)(C)C)C(=O)O (atropisomer, axis not shown) [Example 80] | 21.1 nM | – | – |
| Cc1cc2c(C)c(-c3cncnc3)ccc2c(-c2ccc3c4c(ccnc24)CCO3)c1[C@H](OC(C)(C)C)C(=O)O (atropisomer, axis not shown) [Example 81] | 3370 nM | – | – |
| Cc1cc2ccccc2c(-c2ccc3c4c(ccnc24)CCO3)c1[C@H](OC(C)(C)CCCCS(N)(=O)=O)C(=O)O (atropisomer, axis not shown) [Example 95] | – | 386 nM | – |
| Cc1cc2ccccc2c(-c2ccc3c4c(ccnc24)CCO3)c1[C@@H](OC(C)(CF)CF)C(=O)O (atropisomer, axis not shown) [Example 104] | – | 2950 nM | – |
| Cc1cc2ccccc2c(-c2ccc3c4c(ccnc24)CCO3)c1[C@H](OC(C)(CF)CF)C(=O)O (atropisomer, axis not shown) [Example 105] | – | 15.4 nM | – |
| Cc1cc2ccc(C#CC(C)(O)c3ccccc3)cc2c(-c2ccc(Cl)cc2)c1[C@H](OC(C)(C)C)C(=O)O (stereo in doubt) [Example 14, (S)-2-tert-butoxy-2-(1-(4-chlorophenyl)-7-((R)-3-hydroxy-3-phenylbut-1-ynyl)-3-methylnaphthalen-2-yl)acetic acid] | – | – | EC50 [2]: 56 nM |
| Cc1cc2ccc(C#CC(C)(O)c3ccc(F)cc3)cc2c(-c2ccc(Cl)cc2)c1[C@H](OC(C)(C)C)C(=O)O (stereo partly drawn) [Example 8, (2S)-2-tert-butoxy-2-(1-(4-chlorophenyl)-7-(3-(4-fluorophenyl)-3-hydroxybut-1-ynyl)-3-methylnaphthalen-2-yl)acetic acid] | – | – | EC50 [2]: 120 nM |
| Cc1cc2ccc(C#CC(O)(c3ccccc3)C(F)(F)F)cc2c(-c2ccc(Cl)cc2)c1[C@H](OC(C)(C)C)C(=O)O (stereo partly drawn) [Example 9, (2S)-2-tert-butoxy-2-(1-(4-chlorophenyl)-3-methyl-7-(4,4,4-trifluoro-3-hydroxy-3-phenylbut-1-ynyl)naphthalen-2-yl)acetic acid] | – | – | EC50 [2]: 186 nM |
| Cc1cc2ccc(C#CC(C)(O)c3ccccn3)cc2c(-c2ccc(Cl)cc2)c1[C@H](OC(C)(C)C)C(=O)O (stereo partly drawn) [Example 10, (2S)-2-tert-Butoxy-2-(1-(4-chlorophenyl)-7-(3-hydroxy-3-(pyridin-2-yl)but-1-ynyl)-3-methylnaphthalen-2-yl)acetic acid] | – | – | EC50 [2]: 62 nM |
| Cc1cc2ccc(C#CC(C)(O)c3cccnc3)cc2c(-c2ccc(Cl)cc2)c1[C@H](OC(C)(C)C)C(=O)O (stereo partly drawn) [Example 11, (2S)-2-tert-Butoxy-2-(1-(4-chlorophenyl)-7-(3-hydroxy-3-(pyridin-3-yl)but-1-ynyl)-3-methylnaphthalen-2-yl)acetic acid] | – | – | EC50 [2]: 24 nM |

The next lines start with results.

| EC50 (Table II) | EC50 [1] | SMILES | other results |
| --- | --- | --- | --- |
| – | 52.3 nM | Cc1cc2c3c(ccc2c(-c2ccc4c5c(ccnc25)CCO4)c1[C@H](OC(C)(C)C)C(=O)O)COC3 (atropisomer, axis not shown) [Example 67] | – |
| 2940 nM | – | Cc1cc2cccc(F)c2c(-c2ccc3c4c(ccnc24)CCO3)c1[C@H](OC(C)(C)C)C(=O)O (atropisomer, axis not shown) [Example 68] | – |
| 11.3 nM | – | Cc1cc2cccc(F)c2c(-c2ccc3c4c(ccnc24)CCO3)c1[C@H](OC(C)(C)C)C(=O)O (atropisomer, axis not shown) [Example 69] | – |
| – | 11.6 nM | Cc1cc2c(C(F)F)c(C)ccc2c(-c2ccc3c4c(ccnc24)CCO3)c1[C@H](OC(C)(C)C)C(=O)O (atropisomer, axis not shown) [Example 70] | – |
| 117 nM | – | CC(C)(C)O[C@H](C(=O)O)c1c(-c2ccc3c4c(ccnc24)CCO3)c2ccccc2c2occc12 (atropisomer, axis not shown) [Example 76] | – |
| 32400 nM | – | CC(C)(C)O[C@H](C(=O)O)c1c(-c2ccc3c4c(ccnc24)CCO3)c2ccccc2c2occc12 (atropisomer, axis not shown) [Example 77] | – |
| 45.8 nM | – | CC(C)(C)O[C@H](C(=O)O)c1c2c(c3ccccc3c1-c1ccc3c4c(ccnc14)CCO3)OCC2 (atropisomer, axis not shown) [Example 78] | – |
| 9910 nM | – | CC(C)(C)O[C@H](C(=O)O)c1c2c(c3ccccc3c1-c1ccc3c4c(ccnc14)CCO3)OCC2 (atropisomer, axis not shown) [Example 79] | – |
| – | 43.2 nM | COc1c(C)c([C@H](OC(C)(C)C)C(=O)O)c(-c2ccc3c4c(ccnc24)CCO3)c2ccccc12 (atropisomer, axis not shown) [Example 82] | – |
| – | 14.9 nM | Cc1c([C@H](OC(C)(C)C)C(=O)O)c(-c2ccc3c4c(ccnc24)CCO3)c2ccccc2c1O (atropisomer, axis not shown) [Example 83] | – |
| 131 nM | – | Cc1c([C@H](OC(C)(C)C)C(=O)O)c(-c2ccc3c4c(ccnc24)CCO3)c2ccccc2c1C(F)F (atropisomer, axis not shown) [Example 86] | – |
| 1310 nM | – | Cc1c([C@H](OC(C)(C)C)C(=O)O)c(-c2ccc3c4c(ccnc24)CCO3)c2ccccc2c1C(F)F (atropisomer, axis not shown) [Example 87] | – |
| – | 218 nM | CC(=O)Nc1c(C)c([C@H](OC(C)(C)C)C(=O)O)c(-c2ccc3c4c(ccnc24)CCO3)c2ccccc12 (atropisomer, axis not shown) [Example 89] | – |
| – | 366 nM | CC(C)(C)O[C@H](C(=O)O)c1c(-c2ccc3c4c(ccnc24)CCO3)c2ccccc2c2[nH]ncc12 (atropisomer, axis not shown) [Example 90] | – |
| – | 11.7 nM | Cc1cc2c(N)cccc2c(-c2ccc3c4c(ccnc24)CCO3)c1[C@H](OC(C)(C)C)C(=O)O (atropisomer, axis not shown) [Example 91] | – |
| – | 7.92 nM | Cc1c([C@H](OC(C)(C)C)C(=O)O)c(-c2ccc3c4c(ccnc24)CCO3)c2ccccc2c1N (atropisomer, axis not shown) [Example 93] | – |
| 6420 nM | – | Cc1cc2ccccc2c(-c2ccc3c4c(ccnc24)CCO3)c1[C@H](OC(C)(C)CCF)C(=O)O (atropisomer, axis not shown) [Example 96] | – |
| 43 nM | – | Cc1cc2ccccc2c(-c2ccc3c4c(ccnc24)CCO3)c1[C@H](OC(C)(C)CCF)C(=O)O (atropisomer, axis not shown) [Example 97] | – |
| – | 19400 nM | Cc1cc2ccccc2c(-c2ccc3c4c(ccnc24)CCO3)c1[C@@H](OC(C)(C)CCl)C(=O)O (atropisomer, axis not shown) [Example 98] | – |
| – | 40.5 nM | Cc1cc2ccccc2c(-c2ccc3c4c(ccnc24)CCO3)c1[C@H](OC(C)(C)CCl)C(=O)O (atropisomer, axis not shown) [Example 99] | – |
| – | 4740 nM | Cc1cc2ccccc2c(-c2ccc3c4c(ccnc24)CCO3)c1[C@@H](OC(C)(C)CF)C(=O)O (atropisomer, axis not shown) [Example 101] | – |
| – | 18 nM | Cc1cc2ccccc2c(-c2ccc3c4c(ccnc24)CCO3)c1[C@H](OC(C)(C)CF)C(=O)O (atropisomer, axis not shown) [Example 102] | – |
